Laboratory results reported in patent US20140113877A1, “NOVEL 3,4,4A,10B-TETRAHYDRO-1H-THIOPYRANO[4,3-C] ISOQUINOLINE COMPOUNDS” (Takeda GmbH, priority 2011, published 2014).
Where two headings read alike, the source gives them in different places.

Tests used:
PDE4B1 = target: T1, PDE4B1 (Homo sapiens, UniProt Q07343); assay: Inhibition of PDE4B1 activity (SPA, [3H]cAMP); type: biochemical; settings: recombinant PDE4B1, 0.5 μM cAMP; binned: below 8 / between 8 and 9; read-out: PDE4B1 inhibitory values measured as −logIC50 (converted)
T1 construct: made in house; host or cells: SF21 insect cells (baculovirus; virus prepared in SF9 cells)
Method: The PDE4B1 (GB no. L20966) was a gift of Prof. M. Conti (Stanford University, USA). It was amplified from the original plasmid (pCMV5) via PCR with primers Rb18 (5′-[…]-3′) and Rb10 (5′-[…]-3′) and cloned into the pCR-Bac vector (Invitrogen, Groningen, NL).
The recombinant baculovirus was prepared by means of homologous recombination in SF9 insect cells. The expression plasmids were cotransfected with Baculo-Gold DNA (Pharmingen, Hamburg) using a standard protocol (Pharmingen, Hamburg). Wt virus-free recombinant virus supernatants were selected using plaque assay methods. After that, high-titre virus supernatants were prepared by amplifying 3 times. PDE4B1 was expressed in SF21 cells by infecting 2×10^6 cells/ml with an MOI (multiplicity of infection) between 1 and 10 in the serum-free SF900 medium (GIBCO Life Technologies, Karlsruhe, Germany). The cells were cultured at 28° C. for 48-72 hours, after which they were pelleted for 5-10 min at 1000×g and 4° C.
The SF21 insect cells were resuspended, at a concentration of approx. 10^7 cells/ml, in ice-cold (4° C.) homogenization buffer (20 mM Tris, pH 8.2, containing the following additions: 140 mM NaCl, 3.8 mM KCl, 1 mM EGTA, 1 mM MgCl2, 10 mM β-mercaptoethanol, 2 mM benzamidine, 0.4 mM Pefablock, 10 μM leupeptin, 10 μM pepstatin A, 5 μM trypsin inhibitor) and disrupted by ultrasonication. The homogenate was then centrifuged for 10 min at 1000×g and the supernatant was stored at −80° C. until subsequent use (see below). The protein content was determined by the Bradford method (BioRad, Munich) using BSA (Bovine serum albumin) as the standard.
PDE4B1 activities were measured in a 96-well platform using SPA (scintillation proximity assay) yttrium silicate beads (RPNQ1050 from GE Healthcare). In a first step the PDE activity operated hydrolysis of either [^3H] cAMP (substrate) into [^3H] 5′AMP. In a second step substrate and product were distinguished following addition of SPA yttrium silicate beads. Indeed, in the presence of zinc sulphate the linear [^3H] […] Close proximity of bound [^3H] […] The test volume was 100 μl and finally contained 20 mM Tris buffer (pH 7.4), 0.1 mg/ml of BSA, 5 mM Mg^2+, 0.5 μM cAMP (including about 50,000 cpm of [3H]cAMP) as substrate, 1 μl of the respective substance dilution in DMSO and sufficient recombinant PDE (1000×g supernatant, see above) to ensure that 10-20% of the cAMP was converted under the said experimental conditions. […] After a preincubation of 5 min at 37° C., the reaction was commenced by adding the substrate (cAMP) and the assays were incubated for a further 15 min. Reactions were terminated by adding SPA beads (50 μl). In agreement with the manufacturer's instructions, the SPA beads had previously been resuspended in water, but were then diluted 1:3 (v/v) in water. This diluted solution further contained 3 mM IBMX (isobutylmethylxanthine) to ensure a complete block of PDE activity. Once the beads were sedimented (>30 min), the MTP's (microtiter plate) were analyzed in commercially available luminescence detection devices. The corresponding IC50 values of the compounds for inhibition of PDE4B1 activity were determined from the concentration-effect curves by means of non-linear regression.
For the following compounds PDE4B1 inhibitory values [measured as −logIC50 (mol/l)] below 8 and between 8 and 9 have been determined. The numbers of the compounds correspond to the numbers of the examples.

human PDE5 = target: T2, human PDE5 (Homo sapiens, UniProt O76074); assay: Inhibition of PDE5 activity (SPA, [3H]cGMP, platelet lysate); type: biochemical; settings: 0.5 μM cGMP, binned: below 8 / between 8 and 9, read-out: PDE5 inhibitory values measured as −logIC50 (converted)
T2 construct: from tissue; host or cells: human platelets from fresh donor blood (platelet lysate)
Method: As a source for human PDE5, platelets were used. For that purpose, 150 ml fresh blood from human donors anticoagulated with citrate [final concentration 0.3% (w/v)] was centrifuged at 200 g for 10 min to obtain the so-called platelet-rich-plasma (PRP) as a supernatant. 1/10 volume of ACD solution (85 mM Na3-citrate, 111 mM D-glucose, 71 mM citric acid, pH 4.4) was added to 9/10 volume of PRP. After centrifugation (1,400 g, 10 min) the cell pellet was resuspended in 3 ml homogenization buffer (NaCl 140 mM, KCl 3.8 mM, EGTA (ethylene glycol tetraacetic acid) 1 mM, MgCl2 1 mM, Tris-HCl 20 mM, beta-mercaptoethanol 1 mM, pH 8.2) plus protease-inhibitor mix resulting in final concentrations of 0.5 mM Pefablock (Roche), 10 μM Leupeptin, 5 μM Trypsine inhibitor, 2 mM Benzamidin and 10 μM Pepstatin A. The suspension was sonicated and thereafter centrifuged for 15 min at 10,000 g. The resulting supernatant (platelet lysate) was used for enzymatic assays.
PDE5 activities were measured in a 96-well platform using SPA (scintillation proximity assay) yttrium silicate beads (RPNQ1050 from GE Healthcare). In a first step the PDE activity operated hydrolysis of either [^3H] cGMP (substrate) into [^3H] 5′GMP. In a second step substrate and product were distinguished following addition of SPA yttrium silicate beads. Indeed, in the presence of zinc sulphate the linear [^3H] […] Close proximity of bound [^3H] […] The test volume was 100 μl and contained 20 mM Tris buffer (pH 7.4), 0.1 mg of BSA (bovine serum albumin)/ml, 5 mM Mg^2+, 1 μM motapizone (PDE3 Inhibitor), 10 nM PDE2 inhibitor 2-(3,4-dimethoxybenzyl)-7-[(1R,2R)-2-hydroxy-1-(2-phenylethyl)propyl]-5-methylimidazo[5,1-f][1,2,4]triazin-4(3H)-one, 0.5 μM cGMP (cyclic guanosine monophosphate) (including about 50,000 cpm of [3H]cGMP as a tracer) (substrate), 1 μl of the respective compound dilution in dimethylsulfoxide (DMSO) and sufficient PDE5-containing platelet lysat (10,000×g supernatant, see above) to ensure that 10-20% of the cGMP was converted under the said experimental conditions. […] After a preincubation of 5 min at 37° C., the reaction was commenced by adding the substrate (cGMP) and the assay was incubated for a further 15 min. The reaction was terminated by adding SPA beads (50 μl). In agreement with the manufacturer's instructions, the SPA beads had previously been resuspended in water, but were then diluted 1:3 (v/v) in water. This diluted solution also contained 3 mM 8-methoxymethyl-3-isobutyl-1-methylxanthine (IBMX) to ensure a complete block of PDE activity. Once the beads were sedimented (>30 min), the MTP's were analyzed in commercially available luminescence detection devices. The corresponding IC50 values of the compounds for inhibition of PDE activity were determined from the concentration-effect curves by means of non-linear regression.
For the following compounds PDE5 inhibitory values [measured as −logIC50 (mol/l)] below 8 and between 8 and 9 have been determined. The numbers of the compounds correspond to the numbers of the examples.

[1] = system: bleomycin-induced lung fibrotic remodeling; settings: mice, preventive and therapeutic protocols; cited from earlier work
[2] = system: bleomycin-induced lung fibrotic remodeling; settings: rat, preventive and therapeutic protocols; cited from earlier work
[3] = system: bleomycin-induced pulmonary fibrosis and pulmonary hypertension; settings: in vivo; cited from earlier work
pulmonary fibrosis = settings: patients with pulmonary fibrosis, open-label trials; cited from earlier work

T1 sequence (Q07343 whole entry): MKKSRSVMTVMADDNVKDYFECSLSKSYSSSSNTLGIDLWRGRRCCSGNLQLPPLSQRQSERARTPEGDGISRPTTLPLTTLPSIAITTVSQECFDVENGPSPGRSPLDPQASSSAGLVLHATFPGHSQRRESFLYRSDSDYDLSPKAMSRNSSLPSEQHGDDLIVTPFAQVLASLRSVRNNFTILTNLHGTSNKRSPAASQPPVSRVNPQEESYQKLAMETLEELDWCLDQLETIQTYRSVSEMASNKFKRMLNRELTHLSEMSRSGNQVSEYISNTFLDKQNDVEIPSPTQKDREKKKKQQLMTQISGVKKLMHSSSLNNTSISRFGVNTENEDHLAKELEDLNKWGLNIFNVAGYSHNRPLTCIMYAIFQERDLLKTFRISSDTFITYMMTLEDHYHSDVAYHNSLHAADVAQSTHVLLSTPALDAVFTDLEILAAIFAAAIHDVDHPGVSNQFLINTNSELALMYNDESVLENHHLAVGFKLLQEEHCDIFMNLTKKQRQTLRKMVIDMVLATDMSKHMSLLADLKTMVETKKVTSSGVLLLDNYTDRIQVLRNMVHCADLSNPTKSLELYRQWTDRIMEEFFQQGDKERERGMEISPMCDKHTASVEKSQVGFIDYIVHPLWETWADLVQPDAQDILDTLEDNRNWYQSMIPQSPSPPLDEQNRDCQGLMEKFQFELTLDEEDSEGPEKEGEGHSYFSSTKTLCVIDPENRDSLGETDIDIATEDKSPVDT

In the case of `CCOc1cc2c(cc1OC)C(c1ccc(C(=O)N3CCC(n4c(=O)c5sc(-c6ccc(F)cc6OC)cc5n(Cc5ccccc5)c4=O)CC3)cc1)=N[C@@H]1CCSC[C@H]21` [Example 17, 1-benzyl-3-[1-({4-[(4aR,10bR)-9-ethoxy-8-methoxy-3,4,4a,10b-tetrahydro-1H-thiopyrano[4,3-c]isoquinolin-6-yl]phenyl}carbonyl)piperidin-4-yl]-6-(4-fluoro-2-methoxyphenyl)thieno[3,2-d]pyrimidine-2,4(1H,3H)-dione], the IC50 (PDE4B1) is reported as 1 to 10 nM and the IC50 (human PDE5) is reported as over 10 nM.
With `CCOc1cc2c(cc1OC)C(c1ccc(C(=O)N3CCC(n4c(=O)c5sc(-c6ccc(F)cc6C)cc5n(Cc5ccc(OC)c(F)c5)c4=O)CC3)cc1)=N[C@@H]1CCSC[C@H]21` [Example 18, 3-[1-({4-[(4aR,10bR)-9-ethoxy-8-methoxy-3,4,4a,10b-tetrahydro-1H-thiopyrano[4,3-c]isoquinolin-6-yl]phenyl}carbonyl)piperidin-4-yl]-1-(3-fluoro-4-methoxybenzyl)-6-(4-fluoro-2-methylphenyl)thieno[3,2-d]pyrimidine-2,4(1H,3H)-dione] the IC50 (PDE4B1) was over 10 nM and the IC50 (human PDE5) was 1 to 10 nM.
`CCOc1cc2c(cc1OC)C(c1ccc(C(=O)N3CCC(n4c(=O)c5sc(-c6ccccc6OC)cc5n(Cc5ccc(OC)c(F)c5)c4=O)CC3)cc1)=N[C@@H]1CCSC[C@H]21` [Example 19, 3-[1-({4-[(4aR,10bR)-9-ethoxy-8-methoxy-3,4,4a,10b-tetrahydro-1H-thiopyrano[4,3-c]isoquinolin-6-yl]phenyl}carbonyl)piperidin-4-yl]-1-(3-fluoro-4-methoxybenzyl)-6-(2-methoxyphenyl)thieno[3,2-d]pyrimidine-2,4(1H,3H)-dione] showed an IC50 (PDE4B1) of 1 to 10 nM and an IC50 (human PDE5) of 1 to 10 nM.
Compound `CCOc1cc2c(cc1OC)C(c1cccc(C(=O)N3CCC(n4c(=O)c5sc(-c6ccc7c(c6)OCO7)cc5n(Cc5ccc(OC)c(F)c5)c4=O)CC3)c1)=N[C@@H]1CCSC[C@H]21` [Example 20, 6-(1,3-benzodioxol-5-yl)-3-[1-({3-[(4aR,10bR)-9-ethoxy-8-methoxy-3,4,4a,10b-tetrahydro-1H-thiopyrano[4,3-c]isoquinolin-6-yl]phenyl}carbonyl)piperidin-4-yl]-1-(3-fluoro-4-methoxybenzyl)thieno[3,2-d]pyrimidine-2,4(1H,3H)-dione] has an IC50 (PDE4B1) of over 10 nM and an IC50 (human PDE5) of 1 to 10 nM.
In the case of `CCOc1cc2c(cc1OC)C(c1cccc(C(=O)N3CCC(n4c(=O)c5sc(-c6ccccc6)cc5n(Cc5cc(F)c(OC)c(F)c5)c4=O)CC3)c1)=N[C@@H]1CCSC[C@H]21` [Example 21, 1-(3,5-difluoro-4-methoxybenzyl)-3-[1-({3-[(4aR,10bR)-9-ethoxy-8-methoxy-3,4,4a,10b-tetrahydro-1H-thiopyrano[4,3-c]isoquinolin-6-yl]phenyl}carbonyl)piperidin-4-yl]-6-phenylthieno[3,2-d]pyrimidine-2,4(1H,3H)-dione], the IC50 (PDE4B1) is reported as over 10 nM and the IC50 (human PDE5) is reported as 1 to 10 nM.
For `O=C(Nc1c(Cl)cncc1Cl)c1ccc(OC(F)F)c(OCC2CC2)c1` [roflumilast], the “effect on bleomycin-induced lung fibrotic remodeling” value [1] is given as “alleviate bleomycin-induced lung fibrotic remodeling” and the “effect on bleomycin-induced lung fibrotic remodeling” value [2] is given as “alleviate bleomycin-induced lung fibrotic remodeling”.
For `CCCc1nn(C)c2c(=O)[nH]c(-c3cc(S(=O)(=O)N4CCN(C)CC4)ccc3OCC)nc12` [sildenafil], the “effect on bleomycin-induced pulmonary fibrosis and pulmonary hypertension” value [3] is listed as “attenuates bleomycin-induced pulmonary fibrosis and pulmonary hypertension”, the exercise tolerance (pulmonary fibrosis) is listed as “increases exercise tolerance” and the “lung hemodynamic parameters (vascular resistance and ventilation/perfusion matching)” value (pulmonary fibrosis) is listed as “improves lung hemodynamic parameters”.
